Data taken from article PMC4855186, “Characterization of primary human hepatocyte spheroids as a model system for drug-induced liver injury, liver function and disease” (Scientific Reports, 2016).

Assays:
PHH spheroids [1] = assay: Chronic toxicity assay in PHH spheroids, viability by cellular ATP content; format: cell-based, human; conditions: for Fold changes in EC50 vs. 48 h (8 d): 8 d vs 48 h exposure; for Fold changes in EC50 vs. 48 h (28 d): 28 d vs 48 h exposure; for EC50: Homo sapiens
Description: Cryopreserved PHH (obtained from […], France or Bioreclamation IVT, USA) or fresh hepatocytes (obtained from patients subject to liver resections at Huddinge University Hospital, Stockholm, Sweden) were used for formation of spheroid cultures. Hepatocytes obtained from patient livers were isolated as previously described. Use of the liver specimens for this purpose was approved by the Ethics Committee at Karolinska Institutet ([…] Stockholm) and studies were carried out in accordance with the approved guidelines. Written informed consent was obtained from all donors of liver material. Cells were seeded into ultra-low attachment 96-well plates (Corning) at 1,500 viable cells per well and subsequently centrifuged at 100 × g for 2 min. Cells were seeded in 100 μl Williams E medium supplemented with 2 mM L-glutamine, 100 units/ml penicillin, 100 μg/ml streptomycin, 10 μg/ml insulin, 5.5 μg/ml transferrin, 6.7 ng/ml sodium selenite, 100 nM dexamethasone, and 10% FBS. Spontaneous self-aggregation of the hepatocytes initiated spheroid formation. From day 4 or 5 after seeding, when the spheroids were sufficiently compact, 50% of the medium was exchanged daily for serum-free medium. Spheroids were maintained in serum-free medium until day 35, with a medium change every 48-72 h. Cell viability was assessed by determining the ATP content of single PHH spheroids with the CellTiter-Glo Luminescent Cell Viability Assay (Promega, Sweden). At the same time-points, cell culture medium was collected and albumin concentrations were determined by ELISA (Bethyl laboratories, USA). Absolute ATP and albumin values were normalized to spheroid volumes as determined from bright field imaging to compensate for compaction. […] Treatment was started on day 8 with repeated dosing of PHH spheroids every second day in serum-free medium as indicated. Cell viability was assessed by determining the ATP content as indicated above. EC50 values were determined using GraphPad Prism (GraphPad Software, USA).

patients = test system: patients; set-up: method as in PMID 7565947; conditions: clinical trials, cited from earlier work
[2] = human plasma Cmax; ref 21 (amiodarone), 22 (bosentan), 23 (diclofenac), 24 (fialuridine), 25 (tolcapone); read-out: In vivo Cmax; cited from earlier work
chimeric TK-NOG mice = test system: chimeric TK-NOG mice; set-up: method as in PMID 24736310; conditions: mice carrying human hepatocytes; cited from earlier work
PHH spheroids [3] = assay: Toxicity in non-infected and adenovirus (AdGL)-infected PHH spheroids; format: cell-based, human; conditions: for EC50: Homo sapiens
Description: Cell viability was assessed by determining the ATP content of single PHH spheroids with the CellTiter-Glo Luminescent Cell Viability Assay (Promega, Sweden). At the same time-points, cell culture medium was collected and albumin concentrations were determined by ELISA (Bethyl laboratories, USA). Absolute ATP and albumin values were normalized to spheroid volumes as determined from bright field imaging to compensate for compaction.
A recombinant adenovirus (AdGL) expressing green fluorescent protein (GFP; described in ref. [44]) was added during PHH spheroid seeding at a multiplicity of infection (MOI) of 0.1. PHH were seeded into GravityPLUS hanging-drop 96-well plates (InSphero, Zurich, Switzerland) at 1,500 viable cells per well. Spheroids were transferred to Gravity TRAP 96-well plates (InSphero) on day 7. Culture conditions were identical to the conditions for spheroids formed in ultra-low attachment plates.

[4] = test system: bile salt export pump (BSEP) mRNA; assay: BSEP mRNA expression in PHH spheroids (RT-qPCR); format: cell-based, human; conditions: 5 μM
Description: (§1) PHH spheroids were dosed with 5 μM chlorpromazine every second day for 1 week. For the final exposure, 20 μM tauro-nor-THCA-25-DBD (Genomembrane Company Ltd., Yokohoma, Japan) was added. Bile acid accumulation was quantified and normalized to spheroid size using CellProfiler software.
Total RNA was isolated using Qiazol lysis reagent (Qiagen). RNA was reverse-transcribed into cDNA using SuperScript III reverse transcriptase and RT-qPCR analysis was performed using a TaqMan Universal mix on a 7500 Fast Real-Time PCR system.

PHH spheroids [5] = assay: Bile acid accumulation (tauro-nor-THCA-25-DBD) in PHH spheroids; format: cell-based, human; conditions: 5 μM every second day for 1 week; n = 3, p = 0.03
Description: as §1

PHH spheroids [6] = assay: Neutral lipid staining (steatosis) in PHH spheroids; format: cell-based, human; conditions: 10 μM co-exposure with CsA 30 μM, 48 h; n = 3, p = 0.009
Description: PHH spheroids were treated with 30 μM cyclosporine A (CsA) and/or 10 μM α-tocopherol (α-TOH) as indicated. After 48 h, spheroids were fixed and incubated with HCS LipidTOX Green neutral lipid stain (1:500). CellProfiler software was used to quantify neutral lipid staining.

[7] = test system: Kupffer cells in co-culture spheroids; assay: LPS-induced IL-6 secretion in PHH/NPC co-culture spheroids (ELISA); format: cell-based, human; conditions: 10 μg/ml, 48 h; co-culture spheroids compared to PHH spheroids
Description: When used, co-cultures of cryopreserved PHH and non-parenchymal cells (NPCs; Bioreclamation IVT) originating from different donors were thawed and seeded at a ratio of 2:1 (PHH:NPC) and 2,000 viable cells per well into ultra-low attachment plates. Functionality of Kupffer cells was assessed by measuring lipopolysaccharide (LPS)-induced interleukin 6 (IL-6) secretion. LPS was added at a concentration of 10 μg/ml and supernatants were collected after 48 h. IL-6 levels were determined via ELISA (Thermo Scientific).

[8] = 672 h, PHH spheroids, viability by ATP content, dosing every second day, 28 days, read-out: EC50 (μM) 28d
[9] = PHH spheroids, viability by ATP content, 48 h exposure, read-out: EC50 (μM) 48h
[10] = PHH spheroids, viability by ATP content, dosing every second day, 7d (legend: 8 days), read-out: EC50 (μM) 7d

| Compound | Fold changes in EC50 vs. 48 h (8 d) (PHH spheroids [1]) [fold] | Fold changes in EC50 vs. 48 h (28 d) (PHH spheroids [1]) [fold] | EC50 (PHH spheroids [1]; [8]) [µM] | EC50 (PHH spheroids [1]; [9]) [µM] | EC50 (PHH spheroids [1]; [10]) [µM] | also measured |
| --- | --- | --- | --- | --- | --- | --- |
| COc1ccccc1Oc1c(NS(=O)(=O)c2ccc(C(C)(C)C)cc2)nc(-c2ncccn2)nc1OCCO [Bosentan, bosentan] | 3.6 | 6.0 | 41.8 | > 250 | 69.5 |  |
| O=C(O)Cc1ccccc1Nc1c(Cl)cccc1Cl [Diclofenac, diclofenac] |  |  | 45.9 | 191 | 56.8 |  |
| O=c1[nH]c(=O)n([C@@H]2O[C@H](CO)[C@@H](O)[C@@H]2F)cc1I [Fialuridine, fialuridine] | 142.9 | 1000 |  | > 100 | 0.7 | EC50 (PHH spheroids [1]; 672 h, PHH spheroids, repeated dosing, 4 weeks, read-out: EC50 after 4 weeks): 0.1 µM; toxicity observed after 48 h (PHH spheroids [1]; PHH spheroids, 48 h exposure): no toxicity; patients who died (patients; of those with severe hepatotoxicity): five; patients who developed severe hepatotoxicity (patients; several weeks after beginning treatment): 7/15; Cmax [2]: 1000 nM; hepatotoxicity (chimeric TK-NOG mice): induced hepatotoxicity |
| Cc1ccc(C(=O)c2cc(O)c(O)c([N+](=O)[O-])c2)cc1 [Tolcapone, tolcapone] | 2 | 3.4 | 5.6 | 18.8 | 9.4 | EC50 values related to reported in vivo Cmax (PHH spheroids [1]; already after acute dosing): lower than the reported in vivo Cmax values |
| N[C@@H]1[C@H]2CN(c3nc4c(cc3F)c(=O)c(C(=O)O)cn4-c3ccc(F)cc3F)C[C@@H]12 [Trovafloxacin, trovafloxacin] |  |  |  |  |  | EC50 (PHH spheroids [3]; non-infected PHH spheroids): 96.1 µM; EC50 (PHH spheroids [3]; virus-infected PHH spheroids (AdGL, MOI 0.1)): 32.9 µM; enhancement of toxicity by viral infection (PHH spheroids [3]; infected vs non-infected spheroids, p < 0.001): 2.9 fold |
| CN(C)CCCN1c2ccccc2Sc2ccc(Cl)cc21 [chlorpromazine] |  |  |  |  |  | BSEP mRNA expression [4]: down-regulation; accumulation of fluorescently-labelled bile acid derivative tauro-nor-THCA-25-DBD (PHH spheroids [5]): significant accumulation |
| C[C@H]1COc2c(N3CCN(C)CC3)c(F)cc3c(=O)c(C(=O)O)cn1c23 [levofloxacin] |  |  |  |  |  | toxicity observed (PHH spheroids [3]; infected spheroids): no toxicity; toxicity observed (PHH spheroids [3]; non-infected spheroids): no toxicity |
| Cc1c(C)c2c(c(C)c1O)CC[C@@](C)(CCC[C@H](C)CCC[C@H](C)CCCC(C)C)O2 [α-tocopherol] |  |  |  |  |  | protection against cyclosporine A-induced neutral lipid accumulation (PHH spheroids [6]): fully protected |
| lipopolysaccharide [LPS] |  |  |  |  |  | IL-6 secretion [7]: substantial increase |
